Experimental data from PMC7352759, “S(+)-(2E)-N-(2-Hydroxypropyl)-3-Phenylprop-2-Enamide (KM-568): A Novel Cinnamamide Derivative with Anticonvulsant Activity in Animal Models of Seizures and Epilepsy” (International Journal of Molecular Sciences, 2020).

Experiments:
mice = assay: Maximal electroshock test (MES), mice; type: in vivo; settings: for ED50: Mus musculus, 95% confidence interval in parentheses
Experimental: In vivo activity testing was performed at the Epilepsy Branch, National Institute of Neurological Disorders and Stroke, National Institutes of Health (NIH, Bethesda, USA) within the Anticonvulsant Screening Program (ASP) (currently known as the Epilepsy Therapy Screening Program (ETSP)). Pharmacological evaluation was planned and performed in accordance with the Institute of Laboratory Resources polices on the humane care of laboratory animals and approved by the University of Utah’s Institutional Animal Care and Use Committee (IACUC). All testing protocols were previously published as well as they are available on the NIH website. In the tests, albino mice Carworth Farms No.1 (CF-1) (Charles River), C57/Bl6 mice (Charles River), Frings mice (University of Utah) or male rats Sprague–Dawley (Charles River) were used. All animals were housed, fed, and handled in a manner consistent with the recommendations in the National Council Publication, ‘Guide for the Care and Use of Laboratory animals’ [51]. The tested compound was suspended in 0.5% methylcellulose.
After intraperitoneal or oral administration of compound KM-568 at certain dose, an alternating current at 60 Hz and 50 mA (mice) or 150 mA (rats) was delivered for 0.2 sec via corneal electrodes to induce seizures. Prior to each stimulation, a drop of 0.5% tetracaine hydrochloride in saline was applied to cornea. Protection was defined as the abolition of the hindlimb tonic extension of the seizures.

rats = assay: Pilocarpine-induced status epilepticus model; type: in vivo
Experimental: Compound KM-568 was tested in rats at the doses in the range 200–400 mg/kg i.p. in a pilocarpine-induced status epilepticus model. After administration of pilocarpine, at the time point when a convulsive effect of at least level 3 in the Racine scale was noted (time 0 h) and 0.5 h afterwards (time 0.5 h), KM-568 was administered intraperitoneally at a certain dose.
Pilocarpine was administered intraperitoneally into rats at the dose of 50 mg/kg. Each animal was being observed. The time point when the convulsive effect at the level of at least 3 in the Racine scale was noted (time 0 h), and, 0.5 h (time 0.5 h) afterwards, KM-568 was administered.

[1] = test system: rat cerebral cortex NMDA receptor; assay: NMDA receptor radioligand binding ([3H]CGP39653); settings: 10 µM; antagonist radioligand
Experimental: In order to identify molecular mechanism of action, KM-568 was tested at 10 µM in three radioligand binding assays: rat cerebral cortex GABA receptor non-selective agonist radioligand, AMPA (α-amino-3-hydroxy-5-methyl-4-isoxazolepropionic acid) receptor agonist radioligand, and NMDA (N-methyl-D-aspartate) receptor antagonist radioligand as well as one functional assay involving a human recombinant TRPV1 receptor expressed in CHO cells (agonist and antagonist effects).
Tests were performed by Eurofins Cerep (Eurofins CEREP SA, Celle-Lévescault, France) as a commercial service. In radioligand assays, rat cerebral cortex GABA receptor as well as rat cerebral cortex AMPA (α-amino-3-hydroxy-5-methyl-4-isoxazolepropionic acid) and NMDA (N-methyl-D-aspartate) receptors with 10 nM [^3H]GABA, 8 nM [^3H]AMPA, and 5 nM [^3H]CGP39653, respectively, were used. The results were detected by means of scintillation counting. In functional assays, a human recombinant TRPV1 receptor expressed in Chinese hamster ovary (CHO) cells with 1 µM capsaicin or 30 nM capsazepine were used. Fluorimetry was used as a detection method.

[2] = Ames microplate format (MPF) assay, TA100; settings: Salmonella typhimurium
Source text: (§1) The Ames microplate format (MPF) mutagenicity assay (Xenometrix, Allschwil, Switzerland) was used to test KM-568 mutagenicity. Growth, exposure, and indicator media, positive control chemicals, and four Salmonella typhimurium strains TA98, TA100, TA1535 and TA1537 were included in the kit. TA100 and TA1535 strains detect base substitution mutations, whereas TA98 and TA1537 indicate frameshift mutations. The strains of bacteria included in a kit are in compliance with the Organization for Economic Cooperation and Development (OECD) 471 Guideline for Testing of Chemicals.
(§2) The assay is a liquid microplate modification of the traditional Salmonella test. During the procedure, bacteria are exposed to different concentrations of a test compound for 90 min in a medium containing sufficient histidine to support cell divisions. Then, the cultures are diluted in a pH indicator medium lacking histidine and aliquoted into 48 wells of a 384-well plate. Within 2 days, bacteria that have undergone reversion to amino acid prototrophy will form colonies. Products of bacteria metabolism reduce pH of the medium, changing the color of wells from purple to yellow.
The test procedure provided by Xenometrix and described in detail elsewhere was followed. Bacterial strains were grown overnight (14–16 h) in exposure medium in a shaker incubator and then exposed to KM-568 in 24-well plates for 90 min at 37 °C with agitation. Final KM-568 concentrations in the assay were 0.1, 0.2, and 0.5 mM. After preincubation, the cultures were diluted in the indicator medium and the contents of each 24-well culture were transferred to 48 wells on a 384-well plate and incubated further for 48 h at 37 °C without agitation. After the exposure, the number of wells containing bacteria was scored for yellow wells. […]
(§3) The fold increase of revertants relative to the solvent control was determined by dividing the mean number of positive wells at each dose by the solvent control at baseline. The solvent control at baseline was calculated as the mean number of positive wells in the solvent control plus one standard deviation (SD). […]

[3] = Ames microplate format (MPF) assay, TA1535; settings: Salmonella typhimurium, Salmonella typhimurium TA1535
Source text: as §1, §2
(§4) The test procedure provided by Xenometrix and described in detail elsewhere was followed. Bacterial strains were grown overnight (14–16 h) in exposure medium in a shaker incubator and then exposed to KM-568 in 24-well plates for 90 min at 37 °C with agitation. Final KM-568 concentrations in the assay were 0.1, 0.2, and 0.5 mM. After preincubation, the cultures were diluted in the indicator medium and the contents of each 24-well culture were transferred to 48 wells on a 384-well plate and incubated further for 48 h at 37 °C without agitation. After the exposure, the number of wells containing bacteria was scored for yellow wells. […] Pure DMSO was used as a negative control. All doses were performed in triplicate.
(§5) The fold increase of revertants relative to the solvent control was determined by dividing the mean number of positive wells at each dose by the solvent control at baseline. The solvent control at baseline was calculated as the mean number of positive wells in the solvent control plus one standard deviation (SD). When an increase of more than twofold relative to the baseline at more than one dose with a dose–response was observed, the sample was classified as positive, whereas when no response > 2 times the baseline and no dose–response was stated, the sample was classified as negative.

[4] = Ames microplate format (MPF) assay, TA1537; settings: Salmonella typhimurium
Source text: as §1, §2, §4, §5

[5] = test system: Salmonella typhimurium strains TA98, TA100, TA1535 and TA1537; assay: Ames microplate format (MPF) assay, overall verdict; settings: 0.1, 0.2, 0.5 mM; four strains
Source text: as §1
The assay is a liquid microplate modification of the traditional Salmonella test. During the procedure, bacteria are exposed to different concentrations of a test compound for 90 min in a medium containing sufficient histidine to support cell divisions. […]
The test procedure provided by Xenometrix and described in detail elsewhere was followed. […] After the exposure, the number of wells containing bacteria was scored for yellow wells. […]
as §3

C[C@H](O)CNC(=O)/C=C/c1ccccc1 [KM-568, S(+)-(2E)-N-(2-hydroxypropyl)-3-phenylprop-2-enamide]
ED50 (mice; ip, 0.25 h): 44.5 mg/kg | ED50 (mice; po, 0.5 h): 86.6 mg/kg | MES Results (protected/tested animals) (mice; i.p., 25 mg/kg, 0.25 h): 0/8 | MES Results (protected/tested animals) (mice; i.p., 38 mg/kg, 0.25 h): 1/8 | MES Results (protected/tested animals) (mice; i.p., 41 mg/kg, 0.25 h): 0/8 | MES Results (protected/tested animals) (mice; i.p., 42 mg/kg, 0.25 h): 2/8 | MES Results (protected/tested animals) (mice; i.p., 44 mg/kg, 0.25 h): 5/8 | MES Results (protected/tested animals) (mice; i.p., 50 mg/kg, 0.25 h): 7/8 | MES Results (protected/tested animals) (mice; p.o., 50 mg/kg, 0.5 h): 0/8 | MES Results (protected/tested animals) (mice; p.o., 60 mg/kg, 0.5 h): 2/8 | MES Results (protected/tested animals) (mice; p.o., 70 mg/kg, 0.5 h): 2/8 | MES Results (protected/tested animals) (mice; p.o., 90 mg/kg, 0.5 h): 3/8 | MES Results (protected/tested animals) (mice; p.o., 120 mg/kg, 0.5 h): 7/8 | MES Results (protected/tested animals) (mice; p.o., 150 mg/kg, 0.5 h): 8/8 | ED50 (rats; Rattus norvegicus, ip, 0.5 h, given at time 0.5 h): 297 mg/kg | Results (protected/tested animals) (rats; i.p., 200 mg/kg, given at time 0 h): 8/8 | Results (protected/tested animals) (rats; i.p., 200 mg/kg, given at time 0.5 h): 1/8 | Results (protected/tested animals) (rats; i.p., 300 mg/kg, given at time 0.5 h): 5/8 | Results (protected/tested animals) (rats; i.p., 400 mg/kg, given at time 0.5 h): 7/8 | ED50, pilocarpine-induced status epilepticus (rats; i.p., given at time 0.5 h): 279.45 (212.61–344.62) mg/kg | ED97, pilocarpine-induced status epilepticus (rats; i.p., given at time 0.5 h): 498.2 (378.3–1526.9) mg/kg | Effect in NMDA receptor radioligand binding assay [1]: No significant effects | fold induction at 90 min, 0.1 mM [2]: 0.8 | fold induction at 90 min, 0.2 mM [2]: 0.7 | fold induction at 90 min, 0.5 mM [2]: 1 | fold induction at 90 min, 0.1 mM [3]: 0.7 | fold induction at 90 min, 0.2 mM [3]: 1.3 | fold induction at 90 min, 0.5 mM [3]: 1.1 | fold induction at 90 min, 0.1 mM [4]: 1 | fold induction at 90 min, 0.2 mM [4]: 0.7 | fold induction at 90 min, 0.5 mM [4]: 0.7 | mutagenic activity in the Ames MPF assay [5]: did not exhibit mutagenic activity
